# Article PMC11172478, “1,3,5-Triazine as Branching Connector for the Construction of Novel Antimicrobial Peptide Dendrimers: Synthesis and Biological Characterization” (International Journal of Molecular Sciences, 2024)
# Starred links: 1 amine or outer side, 2 acyl side, 3 side chain; linkers in the order of their positions; H or OH if unused. Positions of bridges follow the written chain, without caps; N, C: chain ends. Residues, ends and D or L forms follow the SMILES beside them. Chains are numbered I, II in the order given. X1 = O=C(c1ccc(Oc2nc(NCCN[*:2])nc(NCCN[*:3])n2)cc1)[*:1]
# How the values were obtained:
# [1] = system: P. aeruginosa susceptible and resistant strains; assay: Checkerboard assay; format: cell-based; conditions: both susceptible and resistant strains
# Experimental: (§1) A checkerboard assay was used to determine the fractional inhibitory concentrations (FICs) of dendrimers in combination with conventional antibiotics. Briefly, each well in a 96-well plate was inoculated with 100 µL of a bacterial inoculum of 1 × 10^6 CFU/mL, and the plates were incubated at 37 °C for 24 h. The FIC was calculated after identifying the first well in each row without growth (MIC), according to the following formula: FIC of drug A (FIC A) = (MIC of drug A in combination)/(MIC of A); FIC of drug B (FIC B) = (MIC of drug B in combination)/(MIC of B). The FIC index (FICI) values were calculated by adding the FIC of drug A to the FIC of drug B [46]. The interpretation of the (FICI) was the following: FICI ≤ 0.5, synergy; 0.5 < FICI ≤ 1, additivity; 1 < FICI ≤ 2 […].
# MDR E. coli = assay: Checkerboard assay; format: cell-based; conditions: for interaction with ciprofloxacin: MDR E. coli; for interaction with rifampicin: strain not stated at this place, b42: results for rifampin quite similar to ciprofloxacin
# Experimental: as §1
# [2] = system: E. coli susceptible strains; assay: Checkerboard assay; format: cell-based
# Experimental: as §1
# [3] = system: Hep G2 hepatocellular carcinoma cell line; assay: Cytotoxicity, resazurin reduction; format: cell-based, human; conditions: HepG2 cells, 24 h, resazurin fluorescence
# Experimental: The cytotoxicity assay was performed in the human hepatocellular carcinoma cell line Hep G2 ATCC and murine L-929 fibroblasts (NCTC clone 929, ECACC 88102702) obtained from the laboratory of Dr. Pérez-Tomás (Cancer Cell Biology, University of Barcelona). The cytotoxicity of the selected peptides was determined by measuring the intracellular reduction of resazurin sodium salt (Sigma-Aldrich, St. Louis, MO, USA). Briefly, HepG2 and L-929 cells were grown in RPMI 1640 or MEM medium, respectively (Biochrom AG, Berlin, Germany), supplemented with 10% fetal bovine serum. Cells from pre-confluent cultures were harvested with trypsin-EDTA and maintained at 37 °C in 5% CO2. Then, 100 µL of each cell line was seeded into 96-well flat-bottomed microplates and incubated for 24 h at 37 °C. The medium was then replaced with 200 μL of medium containing the dendrimers at concentrations ranging from 64 to 0.125 μg/mL and the microplates were incubated for 24 h at 37 °C. Next, 20 μL of resazurin was added to each well and the plates were incubated under the same conditions for 24 h. Fluorescence was measured using a multiwell scanning spectrophotometer at an excitation wavelength of 530 nm and an emission wavelength of 590 nm. Cytotoxicity was then calculated by comparing the fluorescence of the treated and untreated cells (Figure S22).
# E. coli 208691 = assay: microbe, parasite or virus in culture; format: cell-based; conditions: 208691, 24 h
# Experimental: (§2) E. coli ATCC 25922, P. aeruginosa ATCC 27853, S. aureus ATCC 29213, P. aeruginosa 666 SJD (ciprofloxacin-resistant), P. aeruginosa P12, P13, P15, P16 and P17 (MDR isolates) and E. coli 7987, 5545, 8248, 13974, 7259 and 208691 (MDR isolates) from our own collection were included in the present study.
# (§3) The antimicrobial activity of the dendrimers was evaluated against E. coli ATCC 25922, P. aeruginosa ATCC 27853 and S. aureus ATCC 29213 strains. The MIC values were determined by the broth microdilution method. Briefly, the different strains were grown in Muller Hinton broth cation adjusted (MHBCA) medium overnight at 37 °C with shaking at 200 rpm. The bacterial cultures were then adjusted to OD625nm of 0.08–0.1, and 5 μL of each diluted suspension was added to 96-well plates previously filled with MHBCA and serially diluted peptides. Plates were incubated for 24 h at 37 °C. Finally, the MIC was determined macroscopically, based on the visual turbidity of the wells.
# P. aeruginosa P13 = assay: microbe, parasite or virus in culture; format: cell-based; conditions: P13, 24 h
# Experimental: as §2, §3
# E. coli 7987 = assay: microbe, parasite or virus in culture; format: cell-based; conditions: 7987, 24 h
# Experimental: as §2, §3
# E. coli ATCC 25922 [4] = format: cell-based; conditions: for effect on growth curve (in words): E. coli ATCC 25922, TSB, MIC, ½ MIC and ¼ MIC, 37 °C, OD 850 nm
# Experimental: The real-time effect of the peptide dendrimers was examined on the growth curves of E. coli ATCC 25922 and P. aeruginosa ATCC 27853. Volumes of 10 mL of TSB liquid cultures containing 1–5 × 10^5 CFU/mL in the logarithmic phase were adjusted in Falcon tubes. Peptide dendrimers were then added at MIC and sub-inhibitory concentrations (½ MIC and ¼ MIC). Incubation was performed in RTS-1C real-time reverse spin bioreactors RTS-1 (Biosan) for 24 h at 37 °C and 2000 rpm. Growth was measured noninvasively as optical density (OD 850 nm) every 15 min.
# [5] = Black lipid bilayers conductance; conditions: DiPhPC/PS 4:1 in n-decane, 1 M KCl, −80, −120 and −180 mV
# Experimental: The basic methods have been described previously. Membranes were prepared from 1% lipid a mixture of di-phytanoyl-phosphatidylcholine/di-phytanoylphosphatidylserine (DiPhPC/PS) in a molar ratio of 4:1 in n-decane (Avanti Polar Lipids, Delfzyl, The Netherlands). Bilayers were painted over a 2 mm^2 hole in a Teflon divider separating two compartments containing 5 mL each of a bathing solution of 1MKCl. Voltages were applied across the membrane via calomel electrodes connected by a salt bridge. The resultant current was amplified 10^8-fold by a current amplifier and recorded on a Rikadenski chart recorder. A concentration of 1 μg/mL of the dendrimer was used based on the results of Wu et al..
# E. coli ATCC 25922 [6] = assay: Atomic force microscopy of treated bacteria; format: cell-based; conditions: E. coli ATCC 25922, dendrimer at MIC, 4 h, 37 °C
# Experimental: E. coli ATCC 25922 was grown at 37 °C in Mueller Hinton cation-adjusted broth to an optical density of 0.25 at 625 nm. Dendrimers were added to a starting inoculum of 10^6 CFU/mL and incubated for 4 h at 37 °C with shaking. Untreated E. coli was included as a control. Cells in 1 mL of culture were centrifuged at 5000 rpm for 5 min and washed three times with 1 mL of sterile water. The bacterial cells were then resuspended in 100 µL of sterile water and a 10 µL drop was applied to a freshly cleaved mica surface and allowed to dry for approximately 10 min at room temperature.
# The disk surfaces were analyzed by atomic force microscopy using an AFM XE-70 (Park Systems, Suwon, Korea) in non-contact mode with an ACTA 10M cantilever. […] The AFM images were processed using a scanning probe image processor XEI (Park Systems), correcting the plane of the AFM image for any coupling of the lateral plane and the z-axis caused by the instrument.
SMILES,interaction with ciprofloxacin [1],interaction with ciprofloxacin (MDR E. coli),interaction with rifampicin (MDR E. coli),interaction with ciprofloxacin [2],"% Cytotoxicity at 64µg/mL, HepG2 [3] [%]",MIC (E. coli 208691) [µg/mL],MIC (P. aeruginosa P13) [µg/mL],MIC (E. coli 7987) [µg/mL],"MIC value deduced from microfermentor experiments (E. coli ATCC 25922 [4]; ATCC 25922, 24 h) [µg/mL]",effect on growth curve (in words) (E. coli ATCC 25922 [4]; 24 h),"concentration that completely inhibited detectable growth (E. coli ATCC 25922 [4]; E. coli ATCC 25922, growth curves, 24 h) [µg/mL]",channel formation in planar lipid bilayers (conductance) [5],bacterial surface alteration by AFM (in words) (E. coli ATCC 25922 [6])
"CC(C)C[C@H](NC(=O)c1ccc(Oc2nc(NCCNC(=O)[C@H](CCCCN)NC(=O)[C@H](CC(C)C)NC(=O)[C@H](CCCCN)NC(=O)[C@H](CC(C)C)NC(=O)[C@H](CCCCN)NC(=O)[C@@H](N)CC(C)C)nc(NCCNC(=O)[C@H](CCCCN)NC(=O)[C@H](CC(C)C)NC(=O)[C@H](CCCCN)NC(=O)[C@H](CC(C)C)NC(=O)[C@H](CCCCN)NC(=O)[C@@H](N)CC(C)C)n2)cc1)C(=O)N[C@@H](CCCCN)C(=O)N[C@@H](CC(C)C)C(=O)N[C@@H](CCCCN)C(=O)N[C@@H](CC(C)C)C(=O)N[C@@H](CCCCN)C(N)=O [Dendrimer 1, H-[(LK)3]2-(EDA)2-TA-PHBA-(LK)3-NH2] (I: LKLKLK-NH2 / II: H-LKLKLK / III: H-LKLKLK; linker I:N-II:C-III:C via X1)",additive effect,synergistic,synergic,additive effect,0,32,64,8,< 2,fully inhibited growth at the three concentrations tested,2,did not induce membrane channels,significant surface damages
"CC(C)C[C@H](NC(=O)[C@H](CCCCN)NC(=O)[C@H](CC(C)C)NC(=O)[C@H](CCCCN)NC(=O)[C@H](CC(C)C)Nc1nc(NCCNC(=O)[C@H](CCCCN)NC(=O)[C@H](CC(C)C)NC(=O)[C@H](CCCCN)NC(=O)[C@H](CC(C)C)NC(=O)[C@H](CCCCN)NC(=O)[C@@H](N)CC(C)C)nc(NCCNC(=O)[C@H](CCCCN)NC(=O)[C@H](CC(C)C)NC(=O)[C@H](CCCCN)NC(=O)[C@H](CC(C)C)NC(=O)[C@H](CCCCN)NC(=O)[C@@H](N)CC(C)C)n1)C(=O)N[C@@H](CCCCN)C(N)=O [Dendrimer 2, H-[(LK)3-EDA]2-TA-(LK)3-NH2]",additive effect,synergistic,synergic,additive effect,0,8,32,4,,full growth inhibition only at the MIC,,did not induce membrane channels,significant surface damages
